Reference: patent US4898729A, “Treatment of hypertension, compounds and compositions for antihypertension and diuresis” (priority 1983, dated 1990)
Read-outs that look alike come from different tables or passages of the source.

Tests used:
[1] = cited from earlier work; for Approx. Natriuretic Activity: comparison with chlorothiazide having a value of 1; for Potency as diuretic and natriuretic agent relative to chlorothiazide: chlorothiazide being one
plasma proteins = settings: cited from earlier work
[2] = cited from earlier work; for Range diuretic dose: Example 1 table
[3] = in vivo; cited from earlier work
carbonic anhydrase = settings: cited from earlier work
[4] = Clinical antihypertensive action dissociated from diuresis; type: in vivo, humans
Protocol: Such dosage was preferably administered at hourly intervals over a period of from 4 to 8 hours to hypertensive patients.

| Compound | Approx. Natriuretic Activity [1] | Binding to plasma proteins (plasma proteins) | Range diuretic dose [2] | Daily Diuretic Dose (average minimum diuretic dose) [2] | further results |
| --- | --- | --- | --- | --- | --- |
| NS(=O)(=O)c1cc2c(cc1C(F)(F)F)NC(Cc1ccccc1)NS2(=O)=O (centres unmarked) [Bendroflumethiazide] | 100 | proportionately high binding to plasma proteins | 2 to 5 mg | 20 mg | – |
| NS(=O)(=O)c1cc2c(cc1Cl)N=C(CSCc1ccccc1)NS2(=O)=O [Benzthiazide] | 10 | – | 25 to 50 mg | 200 mg | Clinical alkalinization of urine [3]: does not cause an appreciable clinical alkalinization of urine; Carbonic anhydrase inhibition, in words (carbonic anhydrase): relatively potent carbonic anhydrase inhibitor |
| NS(=O)(=O)c1cc2c(cc1Cl)NC(CC1CCCC1)NS2(=O)=O (centres unmarked) [Cyclopenthiazide] | 1000 | proportionately high binding to plasma proteins | 1 to 6 mg | 2 mg | Potency as diuretic and natriuretic agent relative to chlorothiazide [1]: thousand times more potent; Potency as diuretic and natriuretic agent relative to chlorothiazide ([1]; listed as cyclopenthiazide): a thousand; Daily Diuretic Dose (average minimum diuretic dose) ([2]; listed as cyclopenthiazide): about 2 mg |
| NS(=O)(=O)c1cc2c(cc1Cl)NC(C1CC3C=CC1C3)NS2(=O)=O (centres unmarked) [Cyclothiazide] | 500 | proportionately high binding to plasma proteins | 1 to 6 mg | 2 mg | Daily Diuretic Dose (average minimum diuretic dose) ([2]; listed as cyclothiazide): about 2 mg |
| NS(=O)(=O)c1cc2c(cc1C(F)(F)F)N=CNS2(=O)=O [Flumethiazide] | 1 | – | 50 to 1000 mg | 200 mg | – |
| NS(=O)(=O)c1cc2c(cc1Cl)NCNS2(=O)=O [Hydrochlorothiazide] | 10 | – | 25 to 100 mg | 200 mg | – |
| CN1C(CCl)Nc2cc(Cl)c(S(N)(=O)=O)cc2S1(=O)=O (centres unmarked) [Methyclothiazide] | 100 | proportionately high binding to plasma proteins | 5 to 10 mg | 10 mg | – |
| CN1C(CSCC(F)(F)F)Nc2cc(Cl)c(S(N)(=O)=O)cc2S1(=O)=O (centres unmarked) [Polythiazide] | – | proportionately high binding to plasma proteins | – | – | – |
| NS(=O)(=O)c1cc2c(cc1Cl)NC(C(Cl)Cl)NS2(=O)=O (centres unmarked) [Trichlormethiazide] | 200 | proportionately high binding to plasma proteins | 4 to 8 mg | 8 mg | – |
| amiloride-hydrochlorothiazide salt | – | – | – | – | Diuretic response at the antihypertensive daily dose ([4]; at the daily dose of b165): without diuresis; Daily dose to achieve an antihypertensive effect ([4]; dose of active ingredients per day): about 50 mg |
